According to patent US20240279195A1, “SOLID STATE FORMS OF ABEXINOSTAT AND PROCESS FOR PREPARATION THEREOF” (TEVA PHARMACEUTICALS INTERNATIONAL GMBH, priority 2021, published 2024):

assay: solid state stability of the crystalline form upon heating, pressure, grinding and exposure to humidity; type: physicochemical

stability of the crystalline form | Substance
stable | Abexinostat maleate [Form M1]
stable | Abexinostat fumarate [Form F3]
stable | Abexinostat tosylate [Form T1]
